Experimental data as given in ChEMBL document CHEMBL1201862, “PubChem BioAssay data set” (2004).
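Values below derive from 48-hour exposures of cells grown in 96-well plates, with endpoints linearly interpolated between the two concentrations bracketing the appropriate inhibition level. At the GI50, growth is halved.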 Active and inactive are the calls of the source. Cut-off read from the data, not from the text of the source: active = GI50 up to about 1.1 µM and inactive = higher.

Experiments:
Assay in all cases: NCI-60 cell line screen, 48 h
ACHN = tested on: ACHN
SNB-78 = tested on: SNB-78
COLO 205 = tested on: COLO 205
LOX IMVI = tested on: LOX IMVI
U-251 = tested on: U-251
UACC-62 = tested on: UACC-62
HOP-18 = tested on: HOP-18
MOLT-4 = tested on: MOLT-4
SK-OV-3 = tested on: SK-OV-3
M19-MEL = tested on: M19-MEL
SNB-19 = tested on: SNB-19
RPMI-8226 = tested on: RPMI-8226
SK-MEL-5 = tested on: SK-MEL-5
DMS-114 = tested on: DMS-114
NCI-H23 = tested on: NCI-H23
OVCAR-5 = tested on: OVCAR-5
SF-268 = tested on: SF-268
UO-31 = tested on: UO-31
SF-539 = tested on: SF-539
SW-620 = tested on: SW-620

Measured: GI50

N#CC1=C(O)NC(O)=C(C#N)C1c1c(Cl)cccc1Cl
inactive: ACHN 33.3 µM | SNB-78 26.2 µM | COLO 205 37.1 µM | LOX IMVI 15.8 µM | U-251 32.7 µM | UACC-62 23.5 µM | HOP-18 > 100 µM | MOLT-4 > 100 µM | SK-OV-3 23.6 µM | M19-MEL 21.4 µM | SNB-19 38.6 µM | RPMI-8226 > 100 µM | SK-MEL-5 27.3 µM | DMS-114 18.8 µM | NCI-H23 29.4 µM | OVCAR-5 33.5 µM | SF-268 30.9 µM | UO-31 37.9 µM | SF-539 20 µM | SW-620 37.2 µM

COC1C(O)C(n2ncc3c(SC)nc(SC)nc32)OC1C(O)CO (configuration not stated)
inactive: SNB-78 > 100 µM | COLO 205 > 100 µM | LOX IMVI > 100 µM | U-251 > 100 µM | UACC-62 > 100 µM | HOP-18 > 100 µM | MOLT-4 > 100 µM | SK-OV-3 > 100 µM | M19-MEL > 100 µM | SNB-19 > 100 µM | RPMI-8226 > 100 µM | SK-MEL-5 > 100 µM | DMS-114 > 100 µM | NCI-H23 > 100 µM | OVCAR-5 > 100 µM | SF-268 > 100 µM | UO-31 > 100 µM | SF-539 > 100 µM | SW-620 > 100 µM

Nc1ccccc1Sc1ccc(Cl)cc1
inactive: ACHN 27 µM | SNB-78 17 µM | COLO 205 21.1 µM | LOX IMVI 28.6 µM | U-251 16.2 µM | UACC-62 30.3 µM | HOP-18 43.2 µM | MOLT-4 > 10 µM | SK-OV-3 40.4 µM | M19-MEL 23 µM | RPMI-8226 24.4 µM | SK-MEL-5 17.8 µM | DMS-114 21.2 µM | NCI-H23 26.2 µM | OVCAR-5 29.9 µM | SF-268 39.6 µM | UO-31 17.9 µM | SF-539 35.4 µM | SW-620 37.1 µM

CCOC(=O)c1c[nH]c2cc3c(cc2c1=O)CCS3(=O)=O.CCOC(=O)c1c[nH]c2ccc3c(c2c1=O)S(=O)(=O)CC3
inactive: SNB-78 > 100 µM | COLO 205 > 100 µM | LOX IMVI > 100 µM | U-251 > 100 µM | UACC-62 > 100 µM | HOP-18 97.1 µM | MOLT-4 > 100 µM | SK-OV-3 > 100 µM | M19-MEL > 100 µM | SNB-19 > 100 µM | RPMI-8226 > 100 µM | SK-MEL-5 > 100 µM | DMS-114 > 100 µM | NCI-H23 > 100 µM | OVCAR-5 > 100 µM | SF-268 > 100 µM | UO-31 > 100 µM | SF-539 > 100 µM | SW-620 > 100 µM
